Values of other authors, collected in patent US9006272B2, “Pharmaceutical compositions and method for treating inflammation in cattle and other animals” (Intervet Inc., priority 2006, dated 2015).

Settings: background statement

For `Cc1c(Nc2ncccc2C(=O)O)cccc1C(F)(F)F` [flunixin meglumine], the lipid solubility is listed as “very poor”.
